Data on 2 compounds can be found in patent US12005123B2, “Conjugate of isotretinoin and peptide” (CAREGEN CO., LTD., priority 2017, dated 2024).

Read-outs that look alike come from different tables or passages of the source.

For data set [1] the following is noted: cited from earlier work.
The nature of data set [2]: Solubility test in distilled water. The conditions noted are these: 10 mg/ml, FIG. 1. The format is physicochemical.
The conditions of data set [3]: background statement; cited from earlier work.

Regarding `CC1=C(/C=C/C(C)=C/C=C/C(C)=C/C(=O)O)C(C)(C)CCC1=O` [4-oxo-isotretinoin], in data set [1] (6 hours after administration), the “blood concentration of active metabolite versus isotretinoin” value is “higher than the blood concentration of isotretinoin”.

In the case of `CC1=C(/C=C/C(C)=C/C=C/C(C)=C\C(=O)O)C(C)(C)CCC1` [isotretinoin, 13-cis-retinoic acid], the figures for the solubility in water entry in data set [2] and in data set [3] were “hardly dissolved in water” and “low”, respectively. Also, the fasting bioavailability entry in data set [1] (fasting) is listed as “about 20%”. Further, in data set [1] (oral administration), the “time to reach the highest blood concentration” value was 2 to 4 h.
